pIC50: −log10 of the molar value.
Target: human Cav2.2 (Homo sapiens, UniProt Q00975)
Experiment: Assessment of calcium channel activity using FLIPR (Ca2+ influx in IMR32 cells)
Type: cell-based
Details: 60 minute pre-incubation with compound, 2 μM nifedipine, depolarized with 80 mM KCl
Procedure, shortened: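 IMR32 neuroblastoma cells seeded at 1-1.2×10^5 cells/well and grown 48 h at 37 °C before FLIPR Ca2+ influx read. Percent inhibition at each concentration vs no-inhibitor activity; IC50 by non-linear sigmoidal dose-response fit.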

human Cav2.2, sequence (Q00975 whole entry): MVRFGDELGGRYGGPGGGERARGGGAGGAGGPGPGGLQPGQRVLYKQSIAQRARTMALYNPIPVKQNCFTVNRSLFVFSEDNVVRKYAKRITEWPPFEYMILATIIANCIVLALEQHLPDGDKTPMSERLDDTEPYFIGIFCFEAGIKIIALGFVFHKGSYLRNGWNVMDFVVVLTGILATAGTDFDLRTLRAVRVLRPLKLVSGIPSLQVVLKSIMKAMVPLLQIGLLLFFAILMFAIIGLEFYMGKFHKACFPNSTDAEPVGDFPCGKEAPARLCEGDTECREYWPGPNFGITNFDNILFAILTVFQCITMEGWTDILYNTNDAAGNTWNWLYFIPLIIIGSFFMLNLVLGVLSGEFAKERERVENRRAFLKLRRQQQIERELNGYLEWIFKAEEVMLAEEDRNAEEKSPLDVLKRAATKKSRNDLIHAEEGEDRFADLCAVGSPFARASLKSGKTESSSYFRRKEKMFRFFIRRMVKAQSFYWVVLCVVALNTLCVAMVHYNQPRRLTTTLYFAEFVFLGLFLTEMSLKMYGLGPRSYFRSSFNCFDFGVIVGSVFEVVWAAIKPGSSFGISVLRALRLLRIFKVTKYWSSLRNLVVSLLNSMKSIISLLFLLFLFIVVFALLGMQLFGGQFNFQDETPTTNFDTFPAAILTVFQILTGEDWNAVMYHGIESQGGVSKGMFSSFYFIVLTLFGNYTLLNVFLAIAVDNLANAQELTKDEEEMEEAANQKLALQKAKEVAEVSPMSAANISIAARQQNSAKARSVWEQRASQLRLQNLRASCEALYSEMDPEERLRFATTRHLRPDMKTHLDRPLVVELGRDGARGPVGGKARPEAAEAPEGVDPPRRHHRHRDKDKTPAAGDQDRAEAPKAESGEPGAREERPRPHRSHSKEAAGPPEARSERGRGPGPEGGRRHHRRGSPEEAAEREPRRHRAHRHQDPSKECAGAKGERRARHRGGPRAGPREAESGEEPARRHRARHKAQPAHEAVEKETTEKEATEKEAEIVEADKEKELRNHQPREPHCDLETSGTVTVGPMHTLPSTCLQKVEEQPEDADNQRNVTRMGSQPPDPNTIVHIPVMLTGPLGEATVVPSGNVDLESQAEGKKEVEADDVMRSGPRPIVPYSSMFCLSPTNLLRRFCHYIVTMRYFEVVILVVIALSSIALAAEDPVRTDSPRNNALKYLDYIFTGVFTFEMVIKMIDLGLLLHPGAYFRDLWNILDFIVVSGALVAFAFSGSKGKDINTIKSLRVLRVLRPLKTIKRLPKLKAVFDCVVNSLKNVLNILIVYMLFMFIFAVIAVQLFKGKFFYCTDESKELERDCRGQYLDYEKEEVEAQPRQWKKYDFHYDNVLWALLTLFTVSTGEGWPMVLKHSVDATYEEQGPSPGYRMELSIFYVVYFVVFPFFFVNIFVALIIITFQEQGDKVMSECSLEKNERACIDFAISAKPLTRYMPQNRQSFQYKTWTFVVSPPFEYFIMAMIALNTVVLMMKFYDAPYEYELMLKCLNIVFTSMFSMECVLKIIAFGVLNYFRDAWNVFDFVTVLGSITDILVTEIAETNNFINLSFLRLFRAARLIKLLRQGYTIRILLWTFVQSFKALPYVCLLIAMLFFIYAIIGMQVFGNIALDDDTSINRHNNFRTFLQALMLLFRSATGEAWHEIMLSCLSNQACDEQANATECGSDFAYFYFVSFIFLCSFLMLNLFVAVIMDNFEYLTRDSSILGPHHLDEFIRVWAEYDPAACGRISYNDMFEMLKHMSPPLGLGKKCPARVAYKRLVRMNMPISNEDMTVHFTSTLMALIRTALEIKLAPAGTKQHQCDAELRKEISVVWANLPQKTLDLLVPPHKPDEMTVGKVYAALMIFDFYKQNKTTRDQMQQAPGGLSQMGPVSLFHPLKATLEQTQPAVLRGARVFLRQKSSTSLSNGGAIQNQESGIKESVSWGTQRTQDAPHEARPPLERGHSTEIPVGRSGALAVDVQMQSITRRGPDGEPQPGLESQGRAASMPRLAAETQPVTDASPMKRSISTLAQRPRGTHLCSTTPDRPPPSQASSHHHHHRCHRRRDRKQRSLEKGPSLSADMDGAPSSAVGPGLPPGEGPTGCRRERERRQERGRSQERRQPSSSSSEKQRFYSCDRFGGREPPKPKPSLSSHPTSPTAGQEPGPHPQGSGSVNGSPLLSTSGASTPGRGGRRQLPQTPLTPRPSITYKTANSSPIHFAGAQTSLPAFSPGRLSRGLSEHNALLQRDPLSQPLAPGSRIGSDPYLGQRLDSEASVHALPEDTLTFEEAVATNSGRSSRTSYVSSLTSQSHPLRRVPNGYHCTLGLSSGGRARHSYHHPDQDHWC
human Cav2.2, sequence (P54289 25-946 partner limits assumed): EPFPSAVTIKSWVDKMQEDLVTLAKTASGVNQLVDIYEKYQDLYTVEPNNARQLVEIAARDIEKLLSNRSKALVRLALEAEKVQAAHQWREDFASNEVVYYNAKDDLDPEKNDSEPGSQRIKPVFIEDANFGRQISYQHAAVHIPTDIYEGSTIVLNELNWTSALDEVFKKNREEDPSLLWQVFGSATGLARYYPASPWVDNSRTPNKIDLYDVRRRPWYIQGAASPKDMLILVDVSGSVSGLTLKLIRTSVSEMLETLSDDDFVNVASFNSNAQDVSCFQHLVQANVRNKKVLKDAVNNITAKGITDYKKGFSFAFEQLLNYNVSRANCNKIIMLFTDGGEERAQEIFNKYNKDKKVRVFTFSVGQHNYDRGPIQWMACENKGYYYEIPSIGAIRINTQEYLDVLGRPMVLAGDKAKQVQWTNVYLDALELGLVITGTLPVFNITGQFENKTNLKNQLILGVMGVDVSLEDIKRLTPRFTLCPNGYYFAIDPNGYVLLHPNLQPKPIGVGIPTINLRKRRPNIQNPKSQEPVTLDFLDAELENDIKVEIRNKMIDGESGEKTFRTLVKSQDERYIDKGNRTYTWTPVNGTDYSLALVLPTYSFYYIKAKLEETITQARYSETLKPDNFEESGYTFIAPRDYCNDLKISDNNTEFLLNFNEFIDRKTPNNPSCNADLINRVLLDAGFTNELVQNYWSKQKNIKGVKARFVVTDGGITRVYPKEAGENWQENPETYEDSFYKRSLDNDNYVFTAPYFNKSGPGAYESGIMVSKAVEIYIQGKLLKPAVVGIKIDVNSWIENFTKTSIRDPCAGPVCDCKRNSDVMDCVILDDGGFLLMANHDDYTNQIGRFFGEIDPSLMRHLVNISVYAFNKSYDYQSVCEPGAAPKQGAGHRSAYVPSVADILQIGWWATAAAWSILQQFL
human Cav2.2, sequence (P54289 947-1103 partner limits assumed): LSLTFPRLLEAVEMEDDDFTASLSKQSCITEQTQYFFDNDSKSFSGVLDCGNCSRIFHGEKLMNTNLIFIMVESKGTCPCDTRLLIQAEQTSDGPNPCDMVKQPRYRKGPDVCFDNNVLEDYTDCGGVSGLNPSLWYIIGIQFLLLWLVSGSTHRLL
human Cav2.2, sequence (P54284 whole entry partner): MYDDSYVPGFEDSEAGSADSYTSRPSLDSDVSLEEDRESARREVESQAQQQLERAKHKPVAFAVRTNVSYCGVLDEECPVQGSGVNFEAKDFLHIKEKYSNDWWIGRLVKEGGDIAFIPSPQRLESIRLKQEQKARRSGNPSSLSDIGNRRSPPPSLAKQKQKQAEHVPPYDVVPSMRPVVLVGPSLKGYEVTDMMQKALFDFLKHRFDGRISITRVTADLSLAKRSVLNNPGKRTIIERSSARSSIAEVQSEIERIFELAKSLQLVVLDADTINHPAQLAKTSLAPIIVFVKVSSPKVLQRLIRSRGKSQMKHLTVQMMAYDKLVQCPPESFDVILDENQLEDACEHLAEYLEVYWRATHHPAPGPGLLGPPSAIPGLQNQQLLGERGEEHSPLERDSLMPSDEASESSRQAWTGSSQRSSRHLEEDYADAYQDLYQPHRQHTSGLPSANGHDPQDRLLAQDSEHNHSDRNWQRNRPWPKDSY

| Compound | pIC50 |
| --- | --- |
| CC(C)(C)[C@H](N)C(=O)N[C@H]1CC[C@@H]2CN(S(=O)(=O)c3ccc(C(F)(F)F)cc3)C[C@@H]21 [Example 408, 3-methyl-N^1-((3aR,4S,6aS)-2-{[4-(trifluoromethyl)phenyl]sulfonyl}octahydrocyclopenta[c]pyrrol-4-yl)-L-valinamide] | 5.29 |
| CC(C)(C)[C@H](N)C(=O)N[C@@H]1CC[C@H]2CN(S(=O)(=O)c3ccc(C(F)(F)F)cc3)C[C@H]21 [Example 409, 3-methyl-N^1-((3aS,4R,6aR)-2-{[4-(trifluoromethyl)phenyl]sulfonyl}octahydrocyclopenta[c]pyrrol-4-yl)-L-valinamide] | 5.30 |
| CC[C@H](C)[C@H](NC)C(=O)N[C@H]1CC[C@@H]2CN(S(=O)(=O)c3cccc(C(F)(F)F)c3)C[C@@H]21 [Example 410, N^2-methyl-N^1-((3aR,4S,6aS)-2-{[3-(trifluoromethyl)phenyl]sulfonyl}octahydrocyclopenta[c]pyrrol-4-yl)-L-isoleucinamide] | 5.74 |
| CN[C@@H](CC(C)(C)C)C(=O)N[C@@H]1CC[C@H]2CN(S(=O)(=O)c3cccc(C(F)(F)F)c3)C[C@H]21 [Example 416, N^2,4-dimethyl-N^1-((3aS,4R,6aR)-2-{[3-(trifluoromethyl)phenyl]sulfonyl}octahydrocyclopenta[c]pyrrol-4-yl)-L-leucinamide] | 5.88 |
| CCCC[C@H](NC)C(=O)N[C@H]1CC[C@@H]2CN(S(=O)(=O)c3ccc(C(F)(F)F)cc3)C[C@@H]21 [Example 418, N^2-methyl-N^1-((3aR,4S,6aS)-2-{[4-(trifluoromethyl)phenyl]sulfonyl}octahydrocyclopenta[c]pyrrol-4-yl)-L-norleucinamide] | 6.09 |
| CC(C)(C)C[C@H](N)C(=O)N[C@H]1CC[C@@H]2CN(S(=O)(=O)c3ccc(C(F)(F)F)cc3)C[C@@H]21 [Example 419, 4-methyl-N^1-((3aR,4S,6aS)-2-{[4-(trifluoromethyl)phenyl]sulfonyl}octahydrocyclopenta[c]pyrrol-4-yl)-L-leucinamide] | 6.10 |
| CC(C)(C)C[C@H](N)C(=O)N[C@H]1CC[C@@H]2CN(S(=O)(=O)c3cc(C(F)(F)F)ccc3Cl)C[C@@H]21 [Example 428, N^1-((3aR,4S,6aS)-2-{[2-chloro-5-(trifluoromethyl)phenyl]sulfonyl}octahydrocyclopenta[c]pyrrol-4-yl)-4-methyl-L-leucinamide] | 5.64 |
| CCN(C(=O)[C@H](CC(C)(C)C)NC)[C@H]1CC[C@@H]2CN(S(=O)(=O)c3ccc(C(F)(F)F)cc3)C[C@@H]21 [Example 434, N^1-ethyl-N^2,4-dimethyl-N^1-((3aR,4S,6aS)-2-{[4-(trifluoromethyl)phenyl]sulfonyl}octahydrocyclopenta[c]pyrrol-4-yl)-L-leucinamide] | 5.57 |
| CCCN(C(=O)[C@H](CC(C)(C)C)NC)[C@H]1CC[C@@H]2CN(S(=O)(=O)c3ccc(C(F)(F)F)cc3)C[C@@H]21 [Example 435, N^2,4-dimethyl-N^1-propyl-N^1-((3aR,4S,6aS)-2-{[4-(trifluoromethyl)phenyl]sulfonyl}octahydrocyclopenta[c]pyrrol-4-yl)-L-leucinamide] | 5.63 |
| CN[C@@H](CC(C)(C)C)C(=O)N(CC1CC1)[C@H]1CC[C@@H]2CN(S(=O)(=O)c3ccc(C(F)(F)F)cc3)C[C@@H]21 [Example 436, N^1-(cyclopropylmethyl)-N^2,4-dimethyl-N^1-((3aR,4S,6aS)-2-{[4-(trifluoromethyl)phenyl]sulfonyl}octahydrocyclopenta[c]pyrrol-4-yl)-L-leucinamide] | 5.75 |
| CN[C@@H](CC(C)C)C(=O)N[C@@H]1CC[C@H]2CN(S(=O)(=O)c3cccc(F)c3)C[C@H]21 [Example 443, N^1-{(3aS,4R,6aR)-2-[(3-fluorophenyl)sulfonyl]octahydrocyclopenta[c]pyrrol-4-yl}-N^2-methyl-L-leucinamide] | 5.11 |
| CN[C@@H](CC(C)C)C(=O)N[C@@H]1CC[C@H]2CN(S(=O)(=O)c3ccc(F)cc3)C[C@H]21 [Example 444, N^1-{(3aS,4R,6aR)-2-[(4-fluorophenyl)sulfonyl]octahydrocyclopenta[c]pyrrol-4-yl}-N^2-methyl-L-leucinamide] | 5.68 |
| CN[C@@H](CC(C)C)C(=O)N[C@@H]1CC[C@H]2CN(S(=O)(=O)c3ccc(Cl)cc3)C[C@H]21 [Example 447, N^1-{(3aS,4R,6aR)-2-[(4-chlorophenyl)sulfonyl]octahydrocyclopenta[c]pyrrol-4-yl}-N^2-methyl-L-leucinamide] | 5.57 |

Further compounds by rising pIC50, results first:

| pIC50 | Compound |
| --- | --- |
| 5.10 | CN[C@@H](CC(C)C)C(=O)N[C@@H]1CC[C@H]2CN(S(=O)(=O)c3ccc(F)c(F)c3)C[C@H]21 [Example 445, N^1-{(3aS,4R,6aR)-2-[(3,4-difluorophenyl)sulfonyl]octahydrocyclopenta[c]pyrrol-4-yl}-N^2-methyl-L-leucinamide] |
| 5.19 | CN[C@@H](CC1CCCCC1)C(=O)N[C@H]1CC[C@@H]2CN(S(=O)(=O)c3ccc(C(F)(F)F)cc3)C[C@@H]21 [Example 427, 3-cyclohexyl-N^2-methyl-N^1-((3aR,4S,6aS)-2-{[4-(trifluoromethyl)phenyl]sulfonyl}octahydrocyclopenta[c]pyrrol-4-yl)-L-alaninamide] |
| 5.24 | CCC[C@H](NC)C(=O)N[C@@H]1CC[C@@H]2CN(S(=O)(=O)c3ccc(C(F)(F)F)cc3)C[C@@H]21 [Example 420, N^2-methyl-N^1-((3aR,4R,6aS)-2-{[4-(trifluoromethyl)phenyl]sulfonyl}octahydrocyclopenta[c]pyrrol-4-yl)-L-norvalinamide] |
| 5.30 | CN[C@@H](CC(C)C)C(=O)N[C@@H]1CC[C@H]2CN(S(=O)(=O)c3cc(F)cc(F)c3)C[C@H]21 [Example 446, N^1-{(3aS,4R,6aR)-2-[(3,5-difluorophenyl)sulfonyl]octahydrocyclopenta[c]pyrrol-4-yl}-N^2-methyl-L-leucinamide] |
| 5.37 | CC[C@H](C)[C@H](NC)C(=O)N[C@H]1CC[C@@H]2CN(S(=O)(=O)c3ccc(C(F)(F)F)cc3)C[C@@H]21 [Example 411, N^2-methyl-N^1-((3aR,4S,6aS)-2-{[4-(trifluoromethyl)phenyl]sulfonyl}octahydrocyclopenta[c]pyrrol-4-yl)-L-isoleucinamide] |
| 5.49 | CCC[C@H](N)C(=O)N[C@@H]1CC[C@H]2CN(S(=O)(=O)c3cccc(C(F)(F)F)c3)C[C@H]21 [Example 425, N^1-((3aS,4R,6aR)-2-{[3-(trifluoromethyl)phenyl]sulfonyl}octahydrocyclopenta[c]pyrrol-4-yl)-L-norvalinamide] |
| 5.50 | CC(C)(C)C[C@H](N)C(=O)N[C@H]1CC[C@@H]2CN(c3ccc(C(F)(F)F)cn3)C[C@@H]21 [Example 440, 4-methyl-N^1-{(3aR,4S,6aS)-2-[5-(trifluoromethyl)pyridin-2-yl]octahydrocyclopenta[c]pyrrol-4-yl}-L-leucinamide] |
| 5.51 | CCC[C@H](N)C(=O)N[C@H]1CC[C@@H]2CN(S(=O)(=O)c3cccc(C(F)(F)F)c3)C[C@@H]21 [Example 424, N^1-((3aR,4S,6aS)-2-{[3-(trifluoromethyl)phenyl]sulfonyl}octahydrocyclopenta[c]pyrrol-4-yl)-L-norvalinamide] |
| 5.59 | CN[C@@H](CC(C)C)C(=O)N[C@@H]1CC[C@@H]2CN(S(=O)(=O)c3ccc(C(F)(F)F)cc3)C[C@@H]21 [Example 421, N^2-methyl-N^1-((3aR,4R,6aS)-2-{[4-(trifluoromethyl)phenyl]sulfonyl}octahydrocyclopenta[c]pyrrol-4-yl)-L-leucinamide] |
| 5.61 | CN[C@@H](CC(C)(C)C)C(=O)N(C)[C@H]1CC[C@@H]2CN(S(=O)(=O)c3ccc(C(F)(F)F)cc3)C[C@@H]21 [Example 437, N^1,N^2,4-trimethyl-N^1-((3aR,4S,6aS)-2-{[4-(trifluoromethyl)phenyl]sulfonyl}octahydrocyclopenta[c]pyrrol-4-yl)-L-leucinamide] |
| 5.90 | CN[C@@H](CC(C)(C)C)C(=O)N(C1CC1)[C@H]1CC[C@@H]2CN(S(=O)(=O)c3ccc(C(F)(F)F)cc3)C[C@@H]21 [Example 433, N^1-cyclopropyl-N^2,4-dimethyl-N^1-((3aR,4S,6aS)-2-{[4-(trifluoromethyl)phenyl]sulfonyl}octahydrocyclopenta[c]pyrrol-4-yl)-L-leucinamide] |
| 5.94 | CN[C@@H](CC(C)(C)C)C(=O)N[C@@H]1CC[C@H]2CN(S(=O)(=O)c3ccc(C(F)(F)F)cc3)C[C@H]21 [Example 417, N^2,4-dimethyl-N^1-((3aS,4R,6aR)-2-{[4-(trifluoromethyl)phenyl]sulfonyl}octahydrocyclopenta[c]pyrrol-4-yl)-L-leucinamide] |
| 6.02 | CC(C)(C)C[C@H](N)C(=O)N[C@H]1CC[C@@H]2CN(S(=O)(=O)c3ccc(C(F)(F)F)cc3Cl)C[C@@H]21 [Example 429, N^1-((3aR,4S,6aS)-2-{[2-chloro-4-(trifluoromethyl)phenyl]sulfonyl}octahydrocyclopenta[c]pyrrol-4-yl)-4-methyl-L-leucinamide] |
| 6.05 | CN[C@@H](CC(C)(C)C)C(=O)N[C@H]1CC[C@@H]2CN(S(=O)(=O)c3cccc(C(F)(F)F)c3)C[C@@H]21 [Example 414, N^2,4-dimethyl-N^1-((3aR,4S,6aS)-2-{[3-(trifluoromethyl)phenyl]sulfonyl}octahydrocyclopenta[c]pyrrol-4-yl)-L-leucinamide] |
| 6.24 | CN[C@@H](CC(C)(C)C)C(=O)N[C@H]1CC[C@@H]2CN(S(=O)(=O)c3ccc(C(F)(F)F)cc3Cl)C[C@@H]21 [Example 431, N^1-((3aR,4S,6aS)-2-{[2-chloro-4-(trifluoromethyl)phenyl]sulfonyl}octahydrocyclopenta[c]pyrrol-4-yl)-N^2,4-dimethyl-L-leucinamide] |
| 6.43 | CC(C)(C)C[C@H](N)C(=O)N[C@H]1CC[C@@H]2CN(c3cccc(C(F)(F)F)n3)C[C@@H]21 [Example 441, 4-methyl-N^1-{(3aR,4S,6aS)-2-[6-(trifluoromethyl)pyridin-2-yl]octahydrocyclopenta[c]pyrrol-4-yl}-L-leucinamide] |

Reference: patent US8129417B2, “Substituted octahydrocyclopenta[C]pyrrol-4-amines as calcium channel blockers” (Abbott Laboratories, priority 2008, dated 2012)
